Results from publication PMC8287724, “Reducing Auditory Nerve Excitability by Acute Antagonism of Ca^2+-Permeable AMPA Receptors” (Frontiers in Synaptic Neuroscience, 2021).

Assays:
[1] = tested on: AMPA glutamate (GluA2-containing); assay: Radioligand binding assay, AMPA receptor (rat cerebral cortex); settings: antagonist 1 μM
Procedure: Binding assays were conducted to evaluate the affinity of test compounds IEM-1460 and IEM-1925 (Eurofins Scientific, Inc.) for 15 targets: the human alpha-1 adrenergic (A1) receptor, histaminergic (H)-2 and−3 receptors, and muscarinic acetylcholine receptors-1 to−5 in transfected CHO cells by radioligand binding. The neuronal α4β2 and neuronal α7 cholinergic acetylcholine receptors were tested in transfected SH-SY5Y cells. The histaminergic-1 and−4 receptors were tested in transfected HEK-293 cells. Ion channel testing for AMPA and N-methyl-D-aspartate (NMDA) was performed in cells from the rat cerebral cortex. […] Non-specific binding was determined in the presence of 1 μM of DCPX. […] The filters were dried and then counted for radioactivity in a scintillation counter (Topcount, Packard) using a scintillation cocktail (Microscint 0, Packard). The results are expressed as a percent inhibition of the control radioligand specific binding: 100-[(measured specific binding)/(control specific binding) × 100]. […]
We tested the metabolic stability of the compounds with in vitro liver microsome stability assays (Table 1, right). […] We evaluated the compounds for potential toxicity with assays that test for inhibition of off-target ion channels and receptors. […]

[2] = tested on: auditory nerve compound action potential (CAP); assay: Auditory nerve CAP after systemic (intraperitoneal) delivery; type: in vivo, guinea pig; settings: for effect on CAP thresholds: 1 to 22 kHz; for CAP amplitude reduction, on average: after ~1 h, 8 kHz tone bursts at 90 dB SPL
Procedure: This study utilized 21 NIH-strain, pigmented guinea pigs weighing from 400 to 650 g, in accordance with policies and protocols approved by the Institutional Animal Care and Use Committee at Washington University in St. Louis (20180133, 20190035). Animals were anesthetized with intraperitoneal (IP) injection of 100 mg/kg sodium thiobutabarbital (Inactin, Sigma, St. Louis, MO). Once anesthetized, the fur from the head and neck was shaved and a tracheal cannula was placed. The animal was maintained on 0.8–1.2% isoflurane in oxygen using a mechanical ventilator. The ventilator's tidal volume was adjusted to maintain a 5% end-tidal CO2 which was monitored with a CapnoTrue AMP (Bluepoint Medical, Zevenaar, The Netherlands). Body temperature was maintained at 38 degrees C with a DC-powered heating blanket-rectal thermometer (Model 50-7079; Harvard Apparatus). Heart rate and oxygen saturation were monitored with a pulse oximeter (Surgivet, Waukesha, WI). The auditory bulla was exposed ventrally for placement of recording electrodes. The jugular vein was cannulated to maintain hydration with 0.5 mL per hour of Lactated Ringer's solution. To prevent middle ear muscle contractions, vecuronium bromide (0.2 mg/kg) was administered immediately prior to data collection and every 1.5 h thereafter.
As described for local delivery, cochlear output was measured similarly for systemic delivery of IEM-1460 and IEM-1925. Complete details have been previously published (Salt et al., [2013]). Briefly, acoustic tone bursts were applied in a closed sound system. The plastic extension tube of the acoustic assembly (Etymotic Research, ER-10 C) was coupled to the end of the hollow ear bar with the tube tip positioned ~1.5 mm from the tympanic membrane. Stimulus generation and data collection were performed with Tucker Davis System 3 hardware controlled by a custom written program (Microsoft Visual Basic). Stimulus waveforms were routed through a programmable Tucker Davis PA5 attenuator and HB7 headphone amplifier. Stimuli were calibrated from 0.125 to 26 kHz in 1/4 octave steps. A CAP audiogram was obtained at the beginning and end of the experiment. Up to 60 min of baseline audiometric data were obtained prior to drug delivery. Data with baseline changes >20% were excluded. A 13-level tone probe series, at selected frequencies, was repeated at 2-min intervals. Distortion product otoacoustic emissions (DPOAEs) were measured using an ER10C probe system. The two primary tone frequencies were set at 6 kHz (f1) and 7.4 kHz (f2), for a f2/f1-ratio of 1.23, with levels of 65 dB SPL (L1) and 55 dB SPL (L2).
At each probe frequency, CAP peak-to-peak amplitudes were measured from the first trough (N1) to the first peak (P1). Latencies were measured to the trough of N1. Cochlear output was compared before and after intraperitoneal drug delivery. The data were tested for normality using a Kolmogorov-Smirnov test. For CAP amplitude and latency, significance was assessed with the Mann-Whitney U-test. The Wilcoxon signed rank test was used to assess CAP threshold. Friedman test was used to compare concentrations of drug between perilymph and CSF. A p < 0.05 was considered statistically significant. A Bonferroni correction was used when performing multiple comparison testing. All statistical tests were performed with IBM SPSS Statistics Version 27 (SPSS Inc., Chicago, IL, United States).
After at least 30 min of baseline data, 1 mL of Lactated Ringer's was injected into the peritoneal space of the guinea pig as a vehicle control. Then, 13.5 mg/kg IEM-1460 or 8 mg/kg IEM-1925 in Lactated Ringer's was injected into the peritoneal space of the guinea pig. The entire experiment took ~3 h to complete: 1 h for anesthetic induction and surgery, 30 min for sound calibration and CAP threshold measurements, and 2 h for drug delivery, DPOAE and CAP measurements. After collection of perilymph and CSF, the animal was euthanized via saturated KCl delivered directly into the jugular vein. […]

[3] = IP injection: IEM-1460 13.5 mg/kg, IEM-1925 8 mg/kg
[4] = IP injection: IEM-1460 13.5 mg/kg, IEM-1925 8 mg/kg, N = 4

Structure (SMILES) | Mean% inhibition (N = 2) of radioligand binding [1] | effect on CAP latency ([2]; IP 13.5 mg/kg, all tone levels, N = 4) | mean difference between pre- and post-injection CAP amplitudes ([2]; IP 13.5 mg/kg, exemplary recording, across tone levels) | relative reduction of CAP amplitude ([2]; IP 13.5 mg/kg, exemplary recording, probes of 40–90 dB SPL) | delay from IP injection to start of CAP reduction [2, 3] | effect on CAP thresholds [2, 4] | CAP amplitude reduction, on average [2, 4] | CAP reduction from baseline [2, 3]
C[N+](C)(C)CCCCCNCC12CC3CC(CC(C3)C1)C2 [IEM-1460] | <1% | no statistically significant difference | 19.1–269 μV | ~ 50% | 20 to 50 min | not statistically different | ~ 20% | –
NCCCCCNC1(c2ccccc2)CCCCC1 [IEM-1925] | 9.5% | – | – | – | – | minimal effect | ~ 20% | > 50%
